Consider eleven molecules from patent publication US6548517B2, “Oxindole inhibitors of factor Xa” (Millennium Pharmaceuticals, Inc., priority 2000, dated 2003).

Common to all, as to format: biochemical
In one test the target is PLASMIN (Homo sapiens, UniProt P00747). In words: plasmin protease inhibition assay.
For the next test, the system named is KALLIKREIN
As to the kind of experiment: kallikrein protease inhibition assay.

A further test addresses APC (Homo sapiens, UniProt P04070). In words: APC protease inhibition assay.
For the next test, the target named is T1, TRYPSIN (Bos taurus, UniProt P00760).
T1 construct: gene PRSS1
T1 sequence (P00760 24-246): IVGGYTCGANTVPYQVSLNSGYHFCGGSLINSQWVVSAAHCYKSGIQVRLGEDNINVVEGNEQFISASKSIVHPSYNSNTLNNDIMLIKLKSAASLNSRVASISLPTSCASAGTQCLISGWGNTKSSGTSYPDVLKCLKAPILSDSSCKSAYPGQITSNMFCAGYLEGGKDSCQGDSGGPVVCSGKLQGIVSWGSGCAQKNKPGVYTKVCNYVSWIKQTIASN
As to the kind of experiment: trypsin protease inhibition assay.

The next test deals with factor Xa (Homo sapiens, UniProt P00742). As to the kind of experiment: factor Xa amidolytic assay (chromogenic substrate S-2765). The method, then: (§1) The compounds of the present invention are dissolved in buffer to give solutions containing concentrations such that assay concentrations range from 0 to 100 μM. In the assays for thrombin, prothrombinase and factor Xa, a synthetic chromogenic substrate is added to a solution containing test compound and the enzyme of interest and the residual catalytic activity of that enzyme is determined spectrophotometrically. The IC50 of a compound is determined from the substrate turnover. The IC50 is the concentration of test compound giving 50% inhibition of: the substrate turnover.
factor Xa, sequence (P00742 235-488 limits assumed): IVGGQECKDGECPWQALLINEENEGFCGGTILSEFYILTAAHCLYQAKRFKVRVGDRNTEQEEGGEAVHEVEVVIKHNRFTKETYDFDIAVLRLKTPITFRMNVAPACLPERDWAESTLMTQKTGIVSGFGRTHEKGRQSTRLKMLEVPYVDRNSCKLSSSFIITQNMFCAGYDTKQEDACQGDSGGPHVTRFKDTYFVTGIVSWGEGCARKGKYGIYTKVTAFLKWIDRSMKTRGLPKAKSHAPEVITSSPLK
factor Xa, sequence (P00742 41-179 limits assumed): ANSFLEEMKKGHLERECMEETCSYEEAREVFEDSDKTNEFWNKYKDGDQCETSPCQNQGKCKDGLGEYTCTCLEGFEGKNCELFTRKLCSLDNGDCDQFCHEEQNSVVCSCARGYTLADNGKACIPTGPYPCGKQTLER
(§2) The factor Xa and thrombin assays were performed at room temperature, in 0.02 M TrisHCl buffer, pH 7.5, containing 0.15 M NaCl. The rates of hydrolysis of the para-nitroanilide substrate S-2765 (Chromogenix) for factor Xa, and the substrate Chromozym TH (Boehringer Mannheim) for thrombin following preincubation of the enzyme with inhibitor for 5 minutes at room temperature, and were determined using the Softmax 96-well plate reader (Molecular Devices), monitored at 405 nm to measure the time dependent appearance of p-nitroaniline.

Another test deals with TPA (Homo sapiens, UniProt P00750). In words: TPA protease inhibition assay.
TPA, sequence (P00750 36-562, species assumed): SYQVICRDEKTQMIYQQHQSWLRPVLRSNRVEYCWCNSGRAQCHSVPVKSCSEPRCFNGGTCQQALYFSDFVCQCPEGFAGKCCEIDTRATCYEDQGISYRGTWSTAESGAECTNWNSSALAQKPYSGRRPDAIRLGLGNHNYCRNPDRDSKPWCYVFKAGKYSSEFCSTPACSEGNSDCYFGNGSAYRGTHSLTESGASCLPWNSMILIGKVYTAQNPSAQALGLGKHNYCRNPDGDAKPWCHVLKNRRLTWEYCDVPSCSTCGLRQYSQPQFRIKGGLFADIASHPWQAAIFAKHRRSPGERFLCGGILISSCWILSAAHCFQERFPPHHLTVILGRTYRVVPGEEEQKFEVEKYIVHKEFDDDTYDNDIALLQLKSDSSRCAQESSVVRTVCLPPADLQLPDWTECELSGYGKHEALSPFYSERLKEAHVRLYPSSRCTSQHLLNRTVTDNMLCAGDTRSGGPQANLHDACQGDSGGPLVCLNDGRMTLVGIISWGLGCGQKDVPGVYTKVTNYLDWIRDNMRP
A further test addresses prothrombinase complex (Homo sapiens, UniProt P00742). As to the kind of experiment: prothrombinase inhibition assay, plasma free system. Conditions: read-out: IIASE IC50. On the procedure: as §1
The prothrombinase inhibition assay was performed in a plasma free system with modifications to the method described by Sinha, U. et al., Thromb. Res., 75, 427-436 (1994). Specifically, the activity of the prothrombinase complex was determined by measuring the time course of thrombin generation using the p-nitroanilide substrate Chromozym TH. The assay consists of preincubation (5 minutes) of selected compounds to be tested as inhibitors with the complex formed from factor Xa (0.5 nM), factor Va (2 nM), phosphatidyl serine:phosphatidyl choline (25:75, 20 μM) in 20 mM TrisHCI buffer, pH 7.5, containing 0.15 M NaCl, 5 mM CaCl2 and 0.1% bovine serum albumin. Aliquots from the complex-inhibitor mixture were added to prothrombin (1 nM) and Chromozym TH (0.1 mM). The rate of substrate cleavage was monitored at 405 nm for two minutes. Eight different concentrations of inhibitor were assayed in duplicate. A standard curve of thrombin generation by an equivalent amount of untreated complex was used for determination of percent inhibition.

The target in a further test is T2, thrombin (Homo sapiens, UniProt P00734).
T2 construct: proteolytic cleavage of its precursor prothrombin at the Arg-Thr linkage at positions 271-272 and the Arg-Ile linkage at positions 320-321
As to the kind of experiment: thrombin amidolytic assay (Chromozym TH). Conditions: read-out: IIA IC50. On the procedure:
as §1, §2

Structures are written as SMILES.

PLASMIN, sequence (P00747 581-810 limits assumed, species assumed): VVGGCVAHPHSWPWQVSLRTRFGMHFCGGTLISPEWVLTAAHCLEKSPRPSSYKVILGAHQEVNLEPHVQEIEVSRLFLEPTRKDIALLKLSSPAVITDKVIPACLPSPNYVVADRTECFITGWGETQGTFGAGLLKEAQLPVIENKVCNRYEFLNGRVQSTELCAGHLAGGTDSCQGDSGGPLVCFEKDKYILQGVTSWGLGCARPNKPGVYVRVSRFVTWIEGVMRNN
PLASMIN, sequence (P00747 97-580 limits assumed, species assumed): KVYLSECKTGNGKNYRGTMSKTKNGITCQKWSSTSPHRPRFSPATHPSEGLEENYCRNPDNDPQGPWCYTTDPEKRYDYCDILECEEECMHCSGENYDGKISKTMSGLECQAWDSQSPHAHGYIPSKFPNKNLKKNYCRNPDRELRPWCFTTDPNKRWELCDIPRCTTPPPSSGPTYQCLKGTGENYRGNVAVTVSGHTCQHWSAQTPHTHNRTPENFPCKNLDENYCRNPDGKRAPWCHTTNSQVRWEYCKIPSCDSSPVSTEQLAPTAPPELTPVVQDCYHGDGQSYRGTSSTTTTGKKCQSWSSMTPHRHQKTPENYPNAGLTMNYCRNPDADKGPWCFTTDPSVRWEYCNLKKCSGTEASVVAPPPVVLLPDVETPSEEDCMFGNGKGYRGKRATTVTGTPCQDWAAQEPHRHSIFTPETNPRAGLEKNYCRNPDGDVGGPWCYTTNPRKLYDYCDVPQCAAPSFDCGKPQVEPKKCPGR
APC, sequence (P04070 212-461 limits assumed): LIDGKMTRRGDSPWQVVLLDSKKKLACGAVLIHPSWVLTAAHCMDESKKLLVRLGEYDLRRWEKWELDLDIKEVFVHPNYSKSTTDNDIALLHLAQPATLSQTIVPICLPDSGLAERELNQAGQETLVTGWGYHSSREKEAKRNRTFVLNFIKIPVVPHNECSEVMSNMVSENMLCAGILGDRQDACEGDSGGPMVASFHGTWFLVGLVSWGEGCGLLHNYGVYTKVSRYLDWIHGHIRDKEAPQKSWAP
APC, sequence (P04070 43-197 limits assumed): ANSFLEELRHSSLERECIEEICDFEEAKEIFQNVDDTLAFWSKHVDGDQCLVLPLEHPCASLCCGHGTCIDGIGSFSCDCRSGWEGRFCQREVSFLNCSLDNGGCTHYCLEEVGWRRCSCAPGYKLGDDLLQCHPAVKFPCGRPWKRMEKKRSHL
prothrombinase complex, sequence (P00742 235-488 limits assumed): as the sequence (P00742 235-488 limits assumed) above
prothrombinase complex, sequence (P00742 41-179 limits assumed): as the sequence (P00742 41-179 limits assumed) above
prothrombinase complex, sequence (P12259 29-737 partner limits assumed): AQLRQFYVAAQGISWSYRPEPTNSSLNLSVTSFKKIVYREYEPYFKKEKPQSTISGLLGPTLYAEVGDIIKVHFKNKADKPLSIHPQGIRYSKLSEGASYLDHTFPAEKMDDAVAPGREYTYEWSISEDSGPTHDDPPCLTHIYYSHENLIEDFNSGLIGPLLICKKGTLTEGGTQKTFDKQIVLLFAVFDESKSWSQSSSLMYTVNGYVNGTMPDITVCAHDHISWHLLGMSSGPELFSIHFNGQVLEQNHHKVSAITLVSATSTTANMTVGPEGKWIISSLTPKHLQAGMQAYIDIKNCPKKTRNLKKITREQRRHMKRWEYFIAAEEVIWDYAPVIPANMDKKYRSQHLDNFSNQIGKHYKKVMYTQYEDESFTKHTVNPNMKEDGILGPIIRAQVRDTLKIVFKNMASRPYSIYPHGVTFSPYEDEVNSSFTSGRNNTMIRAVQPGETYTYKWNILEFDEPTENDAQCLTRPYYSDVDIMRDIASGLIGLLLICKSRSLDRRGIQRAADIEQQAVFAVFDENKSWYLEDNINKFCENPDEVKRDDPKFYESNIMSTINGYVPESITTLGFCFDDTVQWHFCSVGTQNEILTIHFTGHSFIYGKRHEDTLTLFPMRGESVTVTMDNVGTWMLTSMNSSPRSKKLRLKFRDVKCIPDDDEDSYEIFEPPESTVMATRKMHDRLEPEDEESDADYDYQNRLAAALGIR
prothrombinase complex, sequence (P12259 1574-2224 partner limits assumed): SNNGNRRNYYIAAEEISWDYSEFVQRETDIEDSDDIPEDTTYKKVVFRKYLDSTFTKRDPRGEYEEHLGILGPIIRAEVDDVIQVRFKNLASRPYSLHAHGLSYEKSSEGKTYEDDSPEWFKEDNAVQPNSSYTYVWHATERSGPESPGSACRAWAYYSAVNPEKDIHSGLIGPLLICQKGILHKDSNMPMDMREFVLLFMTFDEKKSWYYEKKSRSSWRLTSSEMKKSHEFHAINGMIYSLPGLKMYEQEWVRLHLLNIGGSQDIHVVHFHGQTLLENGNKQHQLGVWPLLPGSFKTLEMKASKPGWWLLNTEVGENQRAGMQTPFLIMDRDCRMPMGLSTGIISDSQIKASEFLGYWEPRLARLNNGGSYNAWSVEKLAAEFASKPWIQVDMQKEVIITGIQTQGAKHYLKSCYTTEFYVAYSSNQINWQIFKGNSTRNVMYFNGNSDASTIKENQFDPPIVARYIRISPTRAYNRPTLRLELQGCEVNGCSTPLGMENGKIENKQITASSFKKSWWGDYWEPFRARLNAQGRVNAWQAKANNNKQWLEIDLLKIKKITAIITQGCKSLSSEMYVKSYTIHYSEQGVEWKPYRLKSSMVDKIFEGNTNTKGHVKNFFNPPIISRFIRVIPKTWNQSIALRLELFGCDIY

`CC(=N)N1CCC(Oc2ccc3c(c2)CC(=O)N3Cc2ccc3ccc(C(=N)N)cc3c2)CC1` [Example 1]: the half-inhibitory concentration (IC50) was determined as 2460 nM against PLASMIN; 307 nM in the test on KALLIKREIN; 5180 nM on APC; 62.1 nM against TRYPSIN; 13 nM on factor Xa; 18300 nM against TPA. Moreover, the IC50 amounted to 504 nM on prothrombinase complex and 72500 nM on thrombin.

Take `CC(=N)N1CCC(Oc2ccc3c(c2)C(C)(C)C(=O)N3Cc2ccc3ccc(C(=N)N)cc3c2)CC1` [Example 4]: the IC50 against PLASMIN came out at 2210 nM; with KALLIKREIN it was 606 nM; on APC, 848 nM; against TRYPSIN, 13.5 nM; against factor Xa it was 40.2 nM; at TPA it was 17900 nM. In addition, the values for the IC50 on prothrombinase complex and on thrombin were 163 nM and 6970 nM, respectively.

Regarding `CC1(C)C(=O)N(Cc2ccc3ccc(C(=N)N)cc3c2)c2ccc(OC3CCN(C(=N)N)CC3)cc21` [Example 5], the 50% inhibitory concentration (IC50) is 1410 nM against PLASMIN; 535 nM in the test on KALLIKREIN; 683 nM on APC; 6.39 nM against TRYPSIN; 72.5 nM on factor Xa; 19500 nM at TPA. In addition, the IC50 worked out at 264 nM at prothrombinase complex and 4530 nM on thrombin.

On to `CC(C)=C1C(=O)N(Cc2ccc3ccc(C(=N)N)cc3c2)c2ccc(OC3CCN(C(=N)N)CC3)cc21` [Example 6], for which the IC50 against PLASMIN amounted to 880 nM; in the test on KALLIKREIN it was 304 nM; against APC, 3060 nM; at TRYPSIN, 17.6 nM; against factor Xa, 15.1 nM; at TPA, 28500 nM. In addition, the IC50 amounted to 19.8 nM on prothrombinase complex and 19500 nM on thrombin.

Turning to `CC(C)C1C(=O)N(Cc2ccc3ccc(C(=N)N)cc3c2)c2ccc(OC3CCN(C(=N)N)CC3)cc21` (stereo not shown) [Example 7], the IC50 at PLASMIN stood at 734 nM; in the test on KALLIKREIN, 440 nM; at APC it was 549 nM; against TRYPSIN, 3.47 nM; against factor Xa it was 28.4 nM; against TPA, 27900 nM. Besides, the values for the IC50 on prothrombinase complex and on thrombin were 116 nM and 4260 nM, respectively.

Consider `CC(=N)N1CCC(Oc2ccc3c(c2)C(C(C)C)C(=O)N3Cc2ccc3ccc(C(=N)N)cc3c2)CC1` (stereo not shown) [Example 8], for which the IC50 was 628 nM against PLASMIN; 334 nM in the test on KALLIKREIN; 389 nM against APC; 4.92 nM on TRYPSIN; 18.7 nM against factor Xa; 18100 nM against TPA. In addition, the IC50 at prothrombinase complex was 36.3 nM; on thrombin it was 4710 nM.

Regarding `CC(=N)N1CCC(Oc2ccc3c(c2)/C(=C/c2ccccc2)C(=O)N3Cc2ccc3ccc(C(=N)N)cc3c2)CC1` [Example 9], the IC50 stood at 319 nM against PLASMIN; 128 nM in the test on KALLIKREIN; 954 nM at APC; 8.1 nM on TRYPSIN; 2.82 nM against factor Xa; 26600 nM at TPA. The figures for the IC50 on prothrombinase complex and at thrombin were 8.4 nM and 28000 nM, respectively.

On to `CC(=N)N1CCC(Oc2ccc3c(c2)/C(=C/c2ccc(F)cc2)C(=O)N3Cc2ccc3ccc(C(=N)N)cc3c2)CC1` [Example 10], for which the IC50 against PLASMIN was found to be 407 nM; in the test on KALLIKREIN it was 201 nM; against APC it was 1550 nM; against TRYPSIN it was 10.4 nM; at factor Xa it was 5.92 nM; on TPA, 38500 nM. The IC50 at prothrombinase complex turned out to be 19.3 nM; on thrombin it was 20000 nM.

For the molecule `CC(=N)N1CCC(Oc2ccc3c(c2)/C(=C/c2ccc(Cl)cc2)C(=O)N3Cc2ccc3ccc(C(=N)N)cc3c2)CC1` [Example 11], the IC50 against PLASMIN worked out at 309 nM; with KALLIKREIN it was 259 nM; against APC, 1480 nM; against TRYPSIN, 30.3 nM; on factor Xa it was 5.76 nM; at TPA, 28700 nM. Besides, the figures for the IC50 at prothrombinase complex and on thrombin were 17.4 nM and 16100 nM, respectively.

Consider `CC(=N)N1CCC(Oc2ccc3c(c2)/C(=C/C(=O)O)C(=O)N3Cc2ccc3ccc(C(=N)N)cc3c2)CC1` [Example 12], for which the IC50 was 1250 nM on PLASMIN; 2420 nM with KALLIKREIN; 6660 nM against APC; 28.6 nM against TRYPSIN; 17.4 nM on factor Xa; 62100 nM against TPA. Further, the IC50 at prothrombinase complex is 117 nM; at thrombin, 240000 nM.

With `CC(=N)N1CCC(Oc2ccc3c(c2)C(CC(=O)O)C(=O)N3Cc2ccc3ccc(C(=N)N)cc3c2)CC1` (stereo not shown) [Example 13], the IC50 is 2130 nM against PLASMIN; 1590 nM with KALLIKREIN; 9940 nM against APC; 140 nM at TRYPSIN; 53.6 nM at factor Xa; 37000 nM against TPA. For the same molecule, the IC50 on prothrombinase complex was 90.4 nM; on thrombin it was 500000 nM.
